Experimental data from BigSolDB 2.1.

O=C(O)c1cccc(C(=O)O)c1
Conditions	solubility (mole fraction)
in ethanol, 294.35 K	0.004
in ethanol, 296.95 K	0.0042
in ethanol, 298.15 K	0.0043
in ethanol, 300.55 K	0.0047
in ethanol, 306.15 K	0.0051
in ethanol, 308.85 K	0.0053
in ethanol, 310.85 K	0.0056
in ethanol, 313.65 K	0.0063
in ethanol, 318.35 K	0.0068
in ethanol, 320.45 K	0.0072
in ethanol, 324.15 K	0.0075
in ethanol, 326.75 K	0.0078
in ethanol, 330.85 K	0.0085
in ethanol, 331.75 K	0.0089
in ethanol, 335.05 K	0.0093
in isobutanol, 318.65 K	0.0025
in isobutanol, 323.55 K	0.0033
in isobutanol, 327.85 K	0.004
in isobutanol, 331.05 K	0.0047
in isobutanol, 336.15 K	0.0055
in isobutanol, 340.05 K	0.0061
in isobutanol, 343.05 K	0.0066
in isobutanol, 346.65 K	0.0072
in isobutanol, 348.95 K	0.0079
in isobutanol, 351.05 K	0.0085
in isobutanol, 355.05 K	0.0092
in isobutanol, 356.05 K	0.0098
in isobutanol, 360.75 K	0.0108
in isopropanol, 304.65 K	0.0046
in isopropanol, 308.45 K	0.0052
in isopropanol, 310.95 K	0.0057
in isopropanol, 316.45 K	0.0063
in isopropanol, 319.45 K	0.0068
in isopropanol, 322.15 K	0.0075
in isopropanol, 324.85 K	0.0081
in isopropanol, 326.95 K	0.0086
in isopropanol, 331.35 K	0.0095
in isopropanol, 334.35 K	0.0103
in isopropanol, 337.55 K	0.0111
in isopropanol, 342.25 K	0.012
in isopropanol, 344.25 K	0.0126
in methanol, 288.35 K	0.0029
in methanol, 292.45 K	0.0031
in methanol, 295.65 K	0.0032
in methanol, 298.65 K	0.0035
in methanol, 299.65 K	0.0036
in methanol, 302.15 K	0.004
in methanol, 305.25 K	0.0044
in methanol, 308.45 K	0.0047
in methanol, 311.85 K	0.0049
in methanol, 313.45 K	0.0051
in methanol, 316.65 K	0.0056
in methanol, 319.25 K	0.0056
in methanol, 320.15 K	0.006
in methanol, 323.15 K	0.0064
in methanol, 326.05 K	0.0068
in methanol, 328.15 K	0.0072
in n-butanol, 309.65 K	0.0039
in n-butanol, 314.35 K	0.0044
in n-butanol, 319.95 K	0.0052
in n-butanol, 324.45 K	0.0057
in n-butanol, 328.05 K	0.0062
in n-butanol, 332.15 K	0.007
in n-butanol, 335.25 K	0.0076
in n-butanol, 338.05 K	0.0081
in n-butanol, 340.95 K	0.0091
in n-butanol, 345.45 K	0.0099
in n-butanol, 347.95 K	0.0104
in n-propanol, 303.75 K	0.0033
in n-propanol, 305.65 K	0.0039
in n-propanol, 311.65 K	0.0043
in n-propanol, 315.35 K	0.0049
in n-propanol, 318.85 K	0.0054
in n-propanol, 322.55 K	0.0059
in n-propanol, 326.65 K	0.0064
in n-propanol, 330.45 K	0.007
in n-propanol, 337.95 K	0.0091
in n-propanol, 340.15 K	0.0093
in n-propanol, 341.95 K	0.01
in n-propanol, 345.95 K	0.0113
in n-propanol, 348.15 K	0.0122
in sec-butanol, 302.45 K	0.0025
in sec-butanol, 306.35 K	0.0033
in sec-butanol, 309.25 K	0.004
in sec-butanol, 314.15 K	0.0049
in sec-butanol, 317.65 K	0.0057
in sec-butanol, 322.15 K	0.0071
in sec-butanol, 326.25 K	0.0085
in sec-butanol, 331.35 K	0.0098
in sec-butanol, 339.35 K	0.0117
in sec-butanol, 342.35 K	0.0126
in tert-butanol, 303.65 K	0.0026
in tert-butanol, 307.95 K	0.0038
in tert-butanol, 312.15 K	0.0047
in tert-butanol, 315.35 K	0.0059
in tert-butanol, 318.35 K	0.0073
in tert-butanol, 321.15 K	0.0091
in tert-butanol, 324.55 K	0.0106
in tert-butanol, 328.75 K	0.0125
in tert-butanol, 331.65 K	0.0141
in tert-butanol, 334.95 K	0.016
in tert-butanol, 338.45 K	0.0177
in tert-butanol, 342.65 K	0.0194
in tert-butanol, 345.65 K	0.0203
